Read-outs that look alike come from different tables or passages of the source.
Key:
Rat glioma 9 L cells = assay: 9L rat glioma implanted subcutaneously in rats; conditions: doses as in Table 7
Experimental: Rat glioma 9 L cells (10^6 cells) were implanted subcutaneously in female Hsd:SD rats. […] Temozolomide (TMZ) was administered orally three times, four days apart. The rats were followed for 54 days.

9 L rat glioma cells = assay: Activity in vitro against 9L rat glioma cells in culture; assay type: cell-based; conditions: for IC50: dose range 0.1-1.00 μg/ml
Experimental: The IC50 for each compound and also ifosfamide was determined (Table 3).

[1] = Stability profile of bulk 4-HOOI vs. 4-HOOI.Lys (HPLC, NMR)
[2] = system: Sprague Dawley female rats; assay: Rat neurobehavioral modified Morris water maze and pathology; assay type: in vivo; conditions: for Pathology five days later (gross, confirmed by histology) / Memory and learning time intervals: single IP dose: IFOS 400, 4-HOOI 200, 4-HOOI.Lys 300 mg/kg; for Memory and learning time intervals: 1, 2, 3, 20 hours post-dosing
Experimental: Rat Dosing: Neuro-oncology studies with 4-HOOI were conducted to evaluate the product as compared to ifosfamide in a rat neurobehavioral modified Morris water maze. Ifosfamide produces coma and neuro-edema in high doses. […] Timings (six at each time) were measured at 1, 2, 3, and 20 hours post-dosing to monitor learning and memory. […] Histological examinations confirmed the gross observations.

[3] = system: Human glioblastoma cell line U251; conditions: cited from earlier work
[4] = for AUC values for acrolein (trapezoidal rule): 0-120, IV CPA 250, IFOS 400, 4-HOOI 100 mg/kg
Experimental: Half of each plasma sample was lyophilized to collect ACR in a dry ice/methanol-cooled trap. […] For chloroacetaldehyde, the other half of the plasma sample was treated directly with the above trapping agent and the same procedure was used (6 mins) compared with synthetic controls.

SAOS-2 Osteosarcoma = assay: SAOS-2 xenograft (sc); assay type: in vivo, human; conditions: sc implant; intraperitoneal treatment; MTD
Experimental: (§1) 4-HOOI was tested against a number of additional solid tumor xenografts and leukemias.

SK-MEL-31 Melanoma = assay: SK-MEL-31 xenograft (sc); assay type: in vivo, human; conditions: sc implant; intraperitoneal treatment; MTD
Experimental: as §1

[5] = system: Human glioblastoma cell line U251; assay: U251 glioblastoma implanted intracranially in mice; conditions: in vivo
Experimental: (§2) Human breast cancer cell lines MX-1 and ZR75-1 were implanted subcutaneously (SC). Human glioblastoma cell line U251 was implanted intracranially (IC) and P388 CPA-resistant murine leukemia cell line was injected intraperitoneally (IP). For IC implanted tumor cells, treatment was begun 5-7 days post-inoculation. For SC tumors, treatment was begun when the tumor was palpable (5-10 days post-inoculation). Mice were treated with the indicated dose of drug intraperitoneally once per day for 5 days.

[6] = system: Human breast cancer cell line ZR75-1; assay: ZR-75-1 xenograft implanted SC in mice; assay type: in vivo; conditions: IP once per day for 5 days, 4-HOOI 90, IFOS 40 mg/kg/day
Experimental: as §2

[7] = system: Human breast cancer cell line MX-1; assay: MX-1 xenograft implanted SC in mice; assay type: in vivo; conditions: IP once per day for 5 days; for MX-1 T-C: 4-HOOI 90, IFOS 40, IPM 40 mg/kg/day
Experimental: as §2

OVCAR-3 Ovarian = assay: OVCAR-3 xenograft (sc); assay type: in vivo, human; conditions: sc implant; intraperitoneal treatment; MTD
Experimental: as §1

[8] = system: NCI-H69 Small cell lung carcinoma; assay: NCI-H69 xenograft (sc); assay type: in vivo, human; conditions: sc implant; intraperitoneal treatment; MTD
Experimental: as §1

[9] = system: NCI-H23 Non-small cell lung carcinoma; assay: NCI-H23 xenograft (sc); assay type: in vivo, human; conditions: sc implant; intraperitoneal treatment; MTD
Experimental: as §1

mice = assay: Mouse IV dosing toxicology; assay type: in vivo
Experimental: Specific emphasis was placed on documenting potential toxicities associated with IV administered peroxides, namely convulsions, hemolysis, arterial gas emboli-pulmonary damage, and neurological pathology.
Ranges of dosing were 60-400 mg/kg. […] Animals were monitored for 14 days post treatment.

[10] = system: P388 CPA-resistant murine leukemia cell line; assay: P388/CPA leukemia injected IP in mice; assay type: in vivo; conditions: IP once per day for 5 days, 4-HOOI 90, IFOS 40, IPM 40 mg/kg/day
Experimental: as §2

humans = conditions: cited from earlier work

NCCCCC(N)C(=O)O.O=P1(NCCCl)OCCC(OO)N1CCCl (stereo not shown) [4-HOOI•Lys]
CR (animals) (Rat glioma 9 L cells; SC in female Hsd:SD rats, followed 54 days): 9/9
Hematuria (Rat glioma 9 L cells; rats bearing 9L glioma): No hematuria
Weight loss (Rat glioma 9 L cells; rats bearing 9L glioma): No weight loss
Notes (9 L rat glioma cells): Stabilized form prevented
IC50 (9 L rat glioma cells): >1.0 µg/mL
NMR ([1]; Time 0): Stable
NMR ([1]; Time 2 months): Stable
NMR ([1]; Time 4 months): Stable
NMR ([1]; Time 6.5 months): Stable
NMR ([1]; Time 10 months): Stable
Pathology five days later (gross, confirmed by histology) [2]: did not reveal hemorrhagic cystitis, renal tubular necrosis, or bone marrow depletion
Memory and learning time intervals [2]: no significant differences

O=NN(CCCl)C(=O)NCCCl [BCNU, bis-chloronitrosourea]
ILS ([3]; gold standard for the treatment of gliomas): 72 % ILS

O=P1(N(CCCl)CCCl)NCCCO1 (stereo not shown) [CPA, cyclophosphamide]
AUC values for acrolein (trapezoidal rule) [4]: 1520 mg·min/mL

COc1nc(C(Cl)(Cl)Cl)c(Cl)c(OC(=O)O[C@H]2CC[C@@]3(C)C(=CC[C@H]4[C@@H]5CC[C@H]([C@H](C)CCCC(C)C)[C@@]5(C)CC[C@@H]43)C2)c1Cl [DM-CHOC-PEN, 4-demethylcholesteryloxycarbonylpenclomedine]
LTS in U251 glioblastoma ([3]; Morgan et al. 2009): 52 % LTS

O=P1(NCCCl)OCCCN1CCCl (stereo not shown) [IFOS, ifosfamide]
T-C (Days Delay), SAOS-2 (SAOS-2 Osteosarcoma): >61.9 days
Hematuria (Rat glioma 9 L cells; rats bearing 9L glioma): observed
T-C (Days Delay), SK-MEL-31 (SK-MEL-31 Melanoma): 10.9 days
U251 CR (complete response, animals) [5]: (0/5 CR)
U251 T-C [5]: 50 days
ZR-75-1 CR (complete response) [6]: (17% CR)
ZR-75-1 T-C [6]: >43.8 days
MX-1 LTS (long term survivors) ([7]; 4-HOOI 90, IFOS 40 mg/kg/day): (No LTS)
MX-1 T-C [7]: 8.6 days
Notes (9 L rat glioma cells): Inactive without
IC50 (9 L rat glioma cells; Glioma cell, read-out: IC50): > 1 µg/mL
T-C (Days Delay), OVCAR-3 (OVCAR-3 Ovarian): 12.4 days
T-C (Days Delay), NCI-H69 [8]: 6.2 days
T-C (Days Delay), NCI-H23 [9]: 13.7 days
Clinical signs ([2]; IFOS 400 mg/kg single IP dose): shakes and tremors
Bone marrow evaluations ([2]; IFOS 400 mg/kg single IP dose, five days later): pancytopenia
Pathology five days later (gross, confirmed by histology) [2]: hemorrhagic cystitis with gross bleeding
Memory and learning time intervals [2]: normal learning behavioral patterns
Highest tolerated single IV dose (mice): 400 mg/kg
AUC values for acrolein (trapezoidal rule) [4]: 960 mg·min/mL
Urinary hemorrhagic cystitis ([4]; mice): the pathology occurred at day 5 post dosing
P388/CPA (% ILS) [10]: +42 % ILS

O=P(O)(NCCCl)NCCCl [IPM, isophosphoramide mustard]
MX-1 T-C [7]: 2.1 days
Dose limiting toxicity in humans (humans): renal tubular necrosis was dose limiting
P388/CPA (% ILS) [10]: +85 % ILS
